Experiment [1] concerns Enterococcus faecium. Kind of experiment: Antibacterial activity against Enterococcus faecium CCARM 5203 assessed as reduction in bacterial growth at 12.5 ug/ml incubated for 18 hrs by serial dilution method relative to control. Type of experiment: functional.
For experiment [2], the system named is Enterococcus faecium. In words: Antibacterial activity against Enterococcus faecium CCARM 5203 assessed as inhibition zone at 10 mg/ml incubated for 18 hrs by radial diffusion assay. Type of experiment: functional, organism-based.
The next experiment deals with Escherichia coli. In words: Antibacterial activity against Escherichia coli CCARM 1009 assessed as inhibition zone at 10 mg/ml incubated for 18 hrs by radial diffusion assay. The format is functional, organism-based.
The test system of the next experiment is Salmonella typhimurium. Kind of experiment: Antibacterial activity against Salmonella typhimurium CCARM 8250 assessed as inhibition zone at 10 mg/ml incubated for 18 hrs by radial diffusion assay. The format is functional, organism-based. The following applies: Salmonella enterica subsp. enterica serovar Typhimurium.

Molecules are shown by their SMILES. Activity calls are given as the source filed them. The calls are words filed in the database; no cut-off is given here.

With `C/C(=C/C=C/C=C/C(C)C(=O)O)NC(=O)CC(O)\C(C)=C/C=C\C=C(C)\C=C\C=C/CCCNC(=O)C(O)CC(C)C` (centres undefined), the “growth inhibition (GI)” value with Enterococcus faecium [1] is “Active”.

For the molecule `C/C(=C/C=C/C=C/C(C)C(=O)O)NC(=O)CC(O)\C(C)=C/C=C\C=C(C)\C=C\C=C/CCCNC(=O)C(CC(C)C)O[C@@H]1O[C@H](CO)[C@@H](O)[C@H](O)[C@H]1O` (some centres undefined), the “inhibition zone (IZ)” value in the experiment on Enterococcus faecium [2], with Escherichia coli and in the experiment on Salmonella typhimurium was “inactive” throughout. Also, in the experiment with Enterococcus faecium [1], the “growth inhibition (GI)” value was “inactive”.

Take `C/C(=C/C=C/C=C/C(C)C(=O)O)NC(=O)CC(O)\C(C)=C/C=C\C=C(C)\C=C\C=C/C=C/CNC(=O)C(CC(C)C)O[C@@H]1O[C@H](CO)[C@@H](O)[C@H](O)[C@H]1O` (some centres undefined): the “inhibition zone (IZ)” value in the experiment with Enterococcus faecium [2], in the experiment with Escherichia coli and in the experiment with Salmonella typhimurium was “inactive” each time. The “growth inhibition (GI)” value in the experiment with Enterococcus faecium [1] is “inactive”.

For the molecule `C/C(=C/C=C/C=C/C(C)C(=O)O)NC(=O)CC(O)\C(C)=C/C=C\C=C(C)\C=C\C=C\CCCNC(=O)C(CC(C)C)O[C@@H]1O[C@H](CO)[C@@H](O)[C@H](O)[C@H]1O` (some centres undefined), the “inhibition zone (IZ)” value in the experiment on Enterococcus faecium [2], in the experiment on Escherichia coli and in the experiment with Salmonella typhimurium was “inactive” throughout.

For `C/C(=C/C=C/C=C/C(C)C(=O)O[C@@H]1O[C@H](CO)[C@@H](O)[C@H](O)[C@H]1O)NC(=O)CC(O)\C(C)=C/C=C\C=C(C)\C=C\C=C/C=C/CNC(=O)C(O)CC(C)C` (some centres undefined), the “inhibition zone (IZ)” value in the experiment with Enterococcus faecium [2], with Escherichia coli and in the experiment with Salmonella typhimurium was “inactive” in each case.

As for `C/C(=C/C=C/C=C/C(C)C(=O)O)NC(=O)CC(O)\C(C)=C/C=C\C=C(C)\C=C\C=C/C=C/CNC(=O)C(O)CC(C)C` (centres undefined), the “inhibition zone (IZ)” value in the experiment on Enterococcus faecium [2], with Escherichia coli and in the experiment with Salmonella typhimurium was “Active” in each case. For the same molecule, in the experiment on Enterococcus faecium [1] (CCARM 5203, 18 h, read-out: GI), the inhibition of growth at 12.5 µg/mL is over 80%.

The record behind these values is ChEMBL document CHEMBL4414664, “An Effective Strategy for Identification of Highly Unstable Bacillaenes” (2019).
